This is an account of results in patent US20220370636A1, “NICOTINAMIDE ADENINE DINUCLEOTIDE ACTIVATOR AND USE THEREOF” (University of South Florida, priority 2021, published 2022).

Entries after “also recorded” stand apart in the source; their conditions may differ.

Test [1] has as its system C2C12 cells. Put plainly: Scratch (wound closure) assay in C2C12 cells. Format: cell-based, mouse. To be noted: for percent wound closure: 16 h, vs control cells. As to the method:
In vitro model (C2C12 skeletal muscle myoblast) of scratch assay (wound) was created by using pipette tip and recovery of cells was monitored for 16 hours after the scratch. The percent wound closure was measured by the area indicated (FIG. 5B).
Scratch assay in C2C12 cells. C2C12 cells were seeded into either 6-well or 12-well plates and allowed to grow up to 90% confluence. Scratch or wound injury was induced by streaking the plate (2-3 streaks/well) using a 1000 μL sterilized pipette tip in each well. Treatments were performed with the vehicle or P7C3 groups within the cell culture media. Images were taken of each streak immediately after with an Echo Rebel microscope, and the cell culture plates were then placed in the incubator for 16 h. After 16 h, images were obtained at the same location of the streaks utilizing the coordinates marked. The ImageJ software (NIH, USA) was utilized to calculate the areas of the scratches at the 0 h and 16 h time point, with the area at 16 h divided by the area at 0 h to determine the percent wound closure.
Three sets of experiments were performed with this assay to determine the percent wound closure with the P7C3 solution, the P7C3 NPs, the A01B conjugate P7C3 NPs, and the P7C3 scrambled aptamer NPs. For assessing the effects of the P7C3 solution on percent wound closure, the cells were treated with the vehicle control (DMSO) and 100 nM-2 μM P7C3. For determining the effect of P7C3 NPs, the cells were treated with the vehicle control (blank NPs) and 10 nM-1 μM P7C3 NPs. Finally, for the targeted A01B conjugated P7C3 NPs and scrambled aptamer conjugated P7C3 NPs, the cells were treated with the vehicle controls (blank aptamer conjugated NPs) and 100 nM each of both aptamers conjugated NPs.

Test [2] has as its system db/db mice. Put plainly: Grip strength and voluntary running wheel in db/db mice. Format: in vivo. To be noted: 4 weeks, vs db-Veh. On the procedure:
Grip strength and voluntary running wheel. The fore-limb and hind-limb grip strengths were measured with the use of Chatillon force measurement DFE II grip strength meter (Ametek, Columbus Instruments, OH, USA). The average of five measurements per mice is represented as KGF/kg body weight for both the fore-limb and hind-limb grip strengths measured. The overnight voluntary running wheel experiments were carried out with the Columbus Instruments O297, the CI Multi-Device Interface (Columbus Instruments, OH, USA) per manufacturer's recommendations.

For test [3], the system named is db/db mice. Put plainly: Ex vivo myofibre contractility and force-frequency relationship of extensor digitorum longus muscle. Type of test: in vivo. An excerpt: Ex vivo myofibre contractility and force-frequency relationship. Animals were euthanized in compliance with University of South Florida IACUC guidelines. The extensor digitorum longus (EDL) muscles of each animal were tied with surgical silk at the proximal and distal tendons and dissected free. Muscles were immediately transferred to a customized vertical organ bath system (Aurora Scientific Inc., Canada) with the suture on the distal tendon clamped in place and that on the proximal tendon tied to a force transducer such that the muscles were positioned between two platinum wirestimulating electrodes. […] Muscles were equilibrated for 10-15 min after which, the optimal muscle length (l0) for each muscle was calculated by adjusting the length until a maximal force response to a single twitch was attained. Following determination of l0, the muscles were subjected to stimulation trains (500 ms duration) of frequencies ranging from 1-125 Hz, 1 per minute to determine the force-frequency relationship (FFR). Stimulation was delivered with a 58800 dual pulse digital stimulator (Grass Products, West Warwick, R.I., USA), and all pulses were 1 ms in duration. The peak forces of each contraction at the different stimulation frequencies were used to plot the FFR. […]

The test system of test [4] is db/db mice. Put plainly: Serum HDL and LDL/VLDL in db/db mice. Type of test: in vivo. To be noted: vs db-Veh. An excerpt: Fasting blood glucose and serum lipid.
The test system of test [5] is db/db mice. Put plainly: Serum pyruvate in db/db mice. Format: in vivo. To be noted: vs db-Veh. As to the method:
Serum pyruvate enzymatic activity. Serum pyruvate levels were measured using the pyruvate assay kit (Sigma-Aldrich, MO, USA) as per manufacturer's protocol. Briefly, 5 μL of the serum samples were added to each well along with the pyruvate assay buffer, probe solution and the enzyme mix, and incubated for 30 min at RT.

Test [6] deals with C57Bl/6J wildtype mice. Put plainly: In vivo myocardial infarction (permanent LAD ligation). Particulars: single bolus 10 mg/kg i.p. 30 minutes prior to LAD occlusion; 24 hours; vs vehicle. As to the method: […]. All surgical procedures were carried out in aseptic conditions. A left thoracotomy incision was performed at the fourth intercostal space to expose the heart and ligating the LAD coronary artery with an 8-0 polypropylene suture to induce MI as described previously. Myocardial ischemia was confirmed with both the development of pallor myocardium distal to the ligation in the left ventricle and with the ST-segment elevation on the ECG. The skin and muscle incisions were closed with a 6-0 polypropylene suture, and the mice was administered a single dose long-acting analgesic Buprenorphine SR s.c. at 0.5-1.5 mg/kg body weight. The mice were monitored for any signs of pain or discomfort and its feeding and drinking behavior. After 24 hours of occlusion of the LAD coronary artery, the mice were euthanized as per the approved IACUC protocol, and the heart was excised for further processing with 2,3,5-Triphenyltetrazolium chloride (TTC) (Sigma-Aldrich, MO, USA). The whole heart was cut into six parallel short-axis sections and stained with 1% TTC for 90 minutes and fixed overnight in 10% neutral-buffered formalin (Sigma-Aldrich, MO, USA). The TTC stained heart sections were then scanned to determine the total infarct size as the ratio of the infarcted area, i.e., not stained with TTC to the ventricular area of the 4 sections from the apex to the site of occlusion (n=3 mice/group).

As for `OC(CNc1ccccc1)Cn1c2ccc(Br)cc2c2cc(Br)ccc21` (stereo not drawn) [P7C3, 3,6-Dibromo-a-[(phenylamino)methyl]-9H-carbazole-9-ethanol], the percent wound closure result is “not significant” in test [1] (10 nM); “not significant” in test [1] (100 nM); “significantly increased” in test [1] (500 nM); “significantly increased; also recorded: significantly higher” in test [1] (1 μM); “significantly increased” in test [1] (2 μM). Also, the “gap closure at 16 hrs” value in test [1] (C2C12 cells, 1 μM or 100 nM for 24 hours followed by wire injury) is “significantly augmented”. The fore-limb grip strength result in test [2] was “significant increase”. Moreover, in test [2], the hind-limb grip strength result was “significant increase”. Also, the “voluntary running wheel distance covered” value in test [2] is recorded as “significant in-crease”. For the same compound, the “reduced EDL force at higher frequencies seen in db-Veh” value in test [3] (db/db, 4 weeks) is “mitigated”. Also, the “absolute myofibre force frequency area under curve” value in test [3] (ex vivo EDL, vs db-Veh) is listed as “significant increase”. Also, the HDL lipoproteins level result in test [4] is “significant increase”. In addition, the LDL/VLDL lipoproteins level entry in test [4] is “significant decrease”. The serum pyruvate levels entry in test [5] is listed as “significantly high”. Besides, the total infarct size entry in test [6] is “significant reduction”.
